Results on 1 molecule are retold here after BindingDB's records for patent US10383835 (University of California, 2019).

The experiment concerns the target T1, Bifunctional epoxide hydrolase 2 (Sus scrofa, UniProt Q6Q2C2).
T1 sequence (Q6Q2C2 whole entry): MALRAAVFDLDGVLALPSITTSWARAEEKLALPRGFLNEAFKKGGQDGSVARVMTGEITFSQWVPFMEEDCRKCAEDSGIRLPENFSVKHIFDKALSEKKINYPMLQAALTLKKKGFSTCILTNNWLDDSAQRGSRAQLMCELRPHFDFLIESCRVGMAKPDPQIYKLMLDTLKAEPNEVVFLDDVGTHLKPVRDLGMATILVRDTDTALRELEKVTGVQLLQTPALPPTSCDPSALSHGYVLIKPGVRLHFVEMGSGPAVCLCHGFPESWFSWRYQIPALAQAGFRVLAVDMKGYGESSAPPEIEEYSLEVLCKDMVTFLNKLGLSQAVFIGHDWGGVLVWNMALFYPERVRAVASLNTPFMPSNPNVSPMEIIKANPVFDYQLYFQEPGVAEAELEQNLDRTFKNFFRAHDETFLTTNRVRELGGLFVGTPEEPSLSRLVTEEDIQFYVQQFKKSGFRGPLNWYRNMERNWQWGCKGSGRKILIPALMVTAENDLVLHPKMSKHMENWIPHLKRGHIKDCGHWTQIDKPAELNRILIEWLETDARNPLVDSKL
The experiment is described as follows: Inhibition Assay.

pIC50: −log10 of the molar value.

Excerpt: The enzyme also can be detected based on the binding of specific ligands to the catalytic site which either immobilize the enzyme or label it with a probe such as dansyl, fluoracein, luciferase, green fluorescent protein or other reagent. The enzyme can be assayed by its hydration of EETs, its hydrolysis of an epoxide to give a colored product. The assays are normally carried out with a recombinant enzyme following affinity purification.

Usually pIC50 stands for the IC50 on a negative log10 scale, so that one unit is a factor of ten. Read a low pIC50 as a large IC50. As to `CC(=O)N1CCC(NC(=O)Nc2ccc(OC(F)(F)F)cc2)CC1` [US10383835, Compound 1555], the pIC50 was 6.70.
